These results are taken from patent publication US20090007283A1, “Transgenic Rodents Selectively Expressing Human B1 Bradykinin Receptor Protein” (priority 2003, published 2009).

The target of experiment [1] is T1, human B1 receptor (Homo sapiens, UniProt P46663).
T1 construct: from tissue; host or cells: stomach fundus and ileum of line 13 mice homozygous for the human B1 receptor knock-in (targeting vector pB1R-KI2)
T1 sequence (P46663 1-353): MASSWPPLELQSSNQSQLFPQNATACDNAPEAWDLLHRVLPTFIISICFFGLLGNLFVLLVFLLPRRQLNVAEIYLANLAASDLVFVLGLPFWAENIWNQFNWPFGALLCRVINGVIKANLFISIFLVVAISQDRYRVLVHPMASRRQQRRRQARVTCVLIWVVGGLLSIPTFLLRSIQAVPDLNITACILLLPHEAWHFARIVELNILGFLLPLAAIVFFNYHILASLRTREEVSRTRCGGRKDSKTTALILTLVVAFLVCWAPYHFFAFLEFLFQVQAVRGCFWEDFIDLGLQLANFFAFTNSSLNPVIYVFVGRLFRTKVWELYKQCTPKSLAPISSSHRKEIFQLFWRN
The experiment can be described thus: Functional assay: DAK-induced contraction of fundus and ileum tissue from line 13 mice homozygous for the human B1 receptor gene. On the procedure: A functional assay was carried out twice on homozygous human b1 mouse fundus and ileum tissue to evaluate its B1 receptor activity in line 13, a mouse line homozygous for replacement of the mouse B1 gene with the human B1 receptor gene. A selective human B1 receptor compound (Compound #1) was tested for antagonistic activity against the receptor from these knock-in mice. Specifically, two homozygous mice were euthanized with CO2. Their stomach and ileum were removed and the fundic portion was divided in half by cutting an incision along the greater curvature. A medial longitudinal strip about 1 mm×0.6 cm was obtained by making cut along the midline incision. Two fundic strips were obtained from each stomach. The ileum was cut about 4 cm from the cecum. Each ileum is divided into two pieces and whole muscle was used. […] Each piece of ileum was tied one end to a glass rod with silk 4-0 and the other end to the Statham—Gould force transducer. One gram tension was applied to each tissue and contraction was recorded by a Hewlett-Packard 7758 recorder. All tissues receive 50 mM KCl at the end of 1 hr equilibrium for maximal response. The tissues are washed every 20 min for one hour. 30 nM of Compound #1 was added to two treated ileum or two treated fundus tissues and incubated for one hour. 0.1 μM M422 and 1 μM thiorphan are added to the bath 30 min before DAK dosing. A cumulative dose-response of DAK (10-^10M to 3×10^−5M) is carried out after pre-incubation.
DAK is diluted in Krebs solution. Full log dilution is made by adding 25 μl in […]. Compound #1 is diluted in DMSO.

Experiment [2] concerns the target T2, rat b1 (Rattus norvegicus, UniProt P97583).
T2 sequence (P97583 1-337): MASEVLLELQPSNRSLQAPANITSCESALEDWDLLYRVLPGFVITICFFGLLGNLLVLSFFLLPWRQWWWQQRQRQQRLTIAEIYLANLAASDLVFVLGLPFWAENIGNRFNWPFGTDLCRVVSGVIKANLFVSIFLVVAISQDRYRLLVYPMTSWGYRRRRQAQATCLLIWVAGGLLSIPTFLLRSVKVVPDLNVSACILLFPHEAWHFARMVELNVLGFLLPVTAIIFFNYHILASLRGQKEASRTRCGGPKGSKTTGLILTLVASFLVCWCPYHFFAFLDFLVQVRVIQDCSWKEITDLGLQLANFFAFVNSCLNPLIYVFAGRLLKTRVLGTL
Briefly: binding data, rat b1. Conditions: rat B1 receptor; kind of constant not given.

Experiment [3] addresses T3, B1 receptor (Mus musculus, UniProt Q61125).
T3 construct: from tissue; host or cells: stomach fundus of wild type mice
T3 sequence (Q61125 1-334): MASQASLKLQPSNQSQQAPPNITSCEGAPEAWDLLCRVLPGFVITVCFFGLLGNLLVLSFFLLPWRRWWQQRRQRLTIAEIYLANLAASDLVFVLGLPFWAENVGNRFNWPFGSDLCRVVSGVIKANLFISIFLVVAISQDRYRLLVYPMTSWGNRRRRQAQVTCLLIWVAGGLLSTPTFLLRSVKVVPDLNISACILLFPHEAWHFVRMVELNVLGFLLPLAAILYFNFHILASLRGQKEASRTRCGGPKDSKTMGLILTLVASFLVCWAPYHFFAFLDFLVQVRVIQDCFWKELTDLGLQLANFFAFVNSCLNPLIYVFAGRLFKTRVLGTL
Briefly: DAK response of the stomach fundus in wild type mice. The text has this:
This phenotype is detailed herein via a functional assay showing the effect of a selective antagonist of the human B1 receptor. […] Therefore, the transgenic mice of the present invention, including but not limited to the humanized mice exemplified herein, will be useful to evaluate the efficacy of human selective compounds in both in vitro and in vivo assays. The addition of exogenous agonist, or the natural release of endogenous agonist resulting from a stimulus, may activate the human receptor. The ability of human selective compounds to antagonize the activation of the receptor will permit a determination of the efficacy of the compound in these animal models. To this end, the humanized B1 transgenic models as described herein will be useful to screen any potential modulator of receptor activity (e.g., antagonists or agonists), including but not necessarily limited to peptides, proteins, or non-proteinaceous organic or inorganic molecules. The transgenic animals of the present invention provide for improved models to evaluate the efficacy of human selective compounds in both in non-human animal models, such as rodents humanized for expression of the B1 receptor. […] Even if successful, the properties of compounds selective for humans could not be assessed. […]

In experiment [4] the target is T4, hb1 (Homo sapiens, UniProt P46663).
T4 sequence (P46663 1-353): T1 sequence (P46663 1-353)
Briefly: binding data, hb1. Conditions: human B1 receptor; kind of constant not given.

Experiment [5] addresses T5, human B1 bradykinin receptor (human) (UniProt P46663).
T5 sequence (looked up): T1 sequence (P46663 1-353)
The experiment can be described thus: cell-based or functional assay.

pKi: −log10 of the molar value.

In the case of “des-Arg^10 kallidin [des-arg^10-kallidin, reference compound]”, the DAK contractile response result in experiment [1] (Line #13 homozygous mice, compared with wild type) is recorded as “full DAK contractile responses”.

The pKi is the Ki on a negative log10 scale, so that one unit is a factor of ten. Higher therefore signals a small Ki. In the case of `O=C(C[C@@H]1C(=O)NCCN1S(=O)(=O)c1cccc2c1NCCC2)NCCc1ccc(C2=NCCN2)cc1` [Compound #1], the pKi is 6.23 in experiment [2] and 10.40 in experiment [4]. For the same molecule, the Kb in experiment [1] (homozygous mouse fundus, Experiment #2 combined with Experiment #1 (n = 4)) came to 0.25 nM; in experiment [1] (homozygous mouse fundus, line 13, Experiment #1, 30 nM antagonist vs DAK), 0.27 nM; in experiment [1] (homozygous mouse fundus, line 13, Experiment #2, 30 nM antagonist vs DAK), 0.23 nM; in experiment [1] (homozygous mouse ileum, Experiment #2 combined with Experiment #1 (n = 4)), 0.09 nM; in experiment [1] (homozygous mouse ileum, line 13, Experiment #1, 30 nM antagonist vs DAK), 0.11 nM; in experiment [1] (homozygous mouse ileum, line 13, Experiment #2, 30 nM antagonist vs DAK) it was 0.21 nM. The “sensitivity of the DAK response to the human B1 selective antagonist” value in experiment [3] is “insensitive”.

In experiment [5], “des-Arg^10 kallidin (from UniProt P01042 380-388) (peptide)” returned an EC50 of des-arg^10-kallidin, contraction of homozygous mouse ileum, Control (n = 2), Experiment #1 of 4 nM.
